Values of other authors as cited in US20140234430A1, “PHARMACEUTICAL METHODS AND TOPICAL COMPOSITIONS CONTAINING ACITRETIN” (DOUGLAS PHARMACEUTICALS LTD., priority 2011, published 2014).

In the case of `COc1cc(C)c(/C=C/C(C)=C/C=C/C(C)=C/C(=O)O)c(C)c1C` [acitretin, (2E,4E,6E,8E)-9-(4-methoxy-2,3,6-trimethylphenyl)-3,7-dimethylnona-2,4,6,8-tetraenoic acid], the Solubility in alcohols (suitable alcohols) is listed as “quite poorly soluble” and the Solubility in water (water) is listed as “very poorly soluble”.
